pIC50: −log10 of the molar value. In brackets after ≈: the same amount, converted by molar mass. Where two headings read alike, the source gives them in different places.
How the values were obtained:
[1] = Liver S9 metabolic stability assay, human; type: in vitro ADME; conditions: 3 μM, 60 min
Method in brief: (§1)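 Rat and human liver S9 (0.75 and 1.2 mg/ml) with 1 mM NADPH, 0.5 mM UDPGA, 2.5 mM GSH, 0.05 mg/ml PAPS, 3µM substrate, 60 min at 37 °C in Tris/MgCl2 pH 7.4. Mouse microsomes 0.3 mg/mL, 1 mM NADPH, 3µM, 30 min, phosphate pH 7.4. LC-MS/MS, % remaining, triplicate.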

[2] = Kinetic solubility measurement; type: physicochemical; conditions: 10 mM DMSO stock solutions
Method in brief: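 Human and rat liver microsomes (0.3 mg/mL) with 1 mM NADPH and 3µM substrate, 30 minutes at 37 °C in pH 7.4 phosphate/MgCl2, triplicate; LC-MS/MS percentage remaining. LogD: octanol/aqueous buffer (pH 7.4, 2.2, 6.8, 5), 24 h shaking at room temperature. Kinetic solubility: 200 µM, 2% DMSO, 24 h, filtered.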

[3] = target: T1, hERG potassium channels (KCNH2, expressed in HEK293 cells) (Homo sapiens, UniProt Q12809); experiment: hERG inhibition; type: cell-based
T1 construct: expressed in transfected cells

[4] = Liver S9 metabolic stability assay, rat; type: in vitro ADME; conditions: 3 μM, 60 min
Method in brief: as §1

[5] = system: O. gutturosa adult male worms; experiment: O. gutturosa adult worm ex vivo assay, MTT/formazan viability; type: cell-based, Onchocerca gutturosa; conditions: supplement, SD in brackets in the PDF table, read-out: O. gutturosa EC50 (uM) MTT viability inhibition
Method in brief: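 Adult male worms from naturally infected Gambian cattle were kept individually in MEM with 10% newborn calf serum at 37 °C, 5% CO2; four worms per concentration. Motility was scored 0-10 every 24 h to 120 h as a percentage of maximum, with ≥50% reduction versus untreated counted active. Afterwards, MTT (0.5 mg/mL, 30 min) formazan was read at 490 nm.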

T1 sequence (Q12809 whole entry): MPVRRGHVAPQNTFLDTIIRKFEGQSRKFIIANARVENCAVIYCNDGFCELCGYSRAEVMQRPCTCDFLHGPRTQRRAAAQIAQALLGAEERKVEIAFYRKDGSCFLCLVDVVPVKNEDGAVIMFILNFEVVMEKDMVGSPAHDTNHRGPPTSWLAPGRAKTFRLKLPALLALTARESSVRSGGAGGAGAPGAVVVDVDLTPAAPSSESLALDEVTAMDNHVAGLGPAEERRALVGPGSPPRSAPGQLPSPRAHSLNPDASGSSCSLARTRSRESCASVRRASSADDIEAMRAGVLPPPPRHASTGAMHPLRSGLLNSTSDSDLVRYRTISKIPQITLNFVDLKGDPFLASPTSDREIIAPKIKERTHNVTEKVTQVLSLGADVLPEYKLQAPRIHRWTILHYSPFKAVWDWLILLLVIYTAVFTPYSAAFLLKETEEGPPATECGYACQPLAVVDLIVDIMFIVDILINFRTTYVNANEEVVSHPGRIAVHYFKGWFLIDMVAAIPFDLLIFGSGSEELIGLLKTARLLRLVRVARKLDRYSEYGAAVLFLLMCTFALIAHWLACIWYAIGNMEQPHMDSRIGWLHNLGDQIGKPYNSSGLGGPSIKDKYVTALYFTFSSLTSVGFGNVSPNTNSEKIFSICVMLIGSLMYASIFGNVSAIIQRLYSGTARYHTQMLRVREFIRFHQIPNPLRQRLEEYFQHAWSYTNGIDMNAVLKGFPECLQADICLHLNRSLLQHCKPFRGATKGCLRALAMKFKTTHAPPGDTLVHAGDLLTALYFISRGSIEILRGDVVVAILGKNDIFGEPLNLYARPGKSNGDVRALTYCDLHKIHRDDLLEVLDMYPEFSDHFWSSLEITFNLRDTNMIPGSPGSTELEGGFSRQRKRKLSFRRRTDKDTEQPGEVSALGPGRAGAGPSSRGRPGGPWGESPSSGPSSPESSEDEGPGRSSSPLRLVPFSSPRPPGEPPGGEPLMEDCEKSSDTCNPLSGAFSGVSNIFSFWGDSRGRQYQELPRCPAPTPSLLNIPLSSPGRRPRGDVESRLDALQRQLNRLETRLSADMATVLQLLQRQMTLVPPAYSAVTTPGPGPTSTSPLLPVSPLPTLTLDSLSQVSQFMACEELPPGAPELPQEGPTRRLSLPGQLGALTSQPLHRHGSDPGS

Cc1cccnc1Nc1nc(-c2ccc(OC3CC4(C3)CN(C3CC3)C4)cn2)ns1 [Compound 12, 3-[5-[(2-Cyclopropyl-2-azaspiro[3.3]heptan-6-yl)oxy]-2-pyridyl]-N-(3-methyl-2-pyridyl)-1,2,4-thiadiazol-5-mine]
Human S9 metabolic stability [1]: 58 % remaining | solubility kinetic at 24 h [2]: 13.1 µM (≈ 5.5 µg/mL) | pIC50 [3]: 6.69 | pIC50 ([3]; supplement): 6.70 | Rat S9 metabolic stability [4]: 53 % remaining | EC50 ([5]; Onchocerca gutturosa): 0.03 µM | EC50 [5]: 0.033 µM

Cc1cccnc1Nc1nc(-c2ccc(OC3CCN(C4CC4)CC3)cn2)ns1 [Compound 19, 3-[5-[(1-Cyclopropyl-4-piperidyl)oxy]-2-pyridyl]-N-(3-methyl-2-pyridyl)-1,2,4-thiadiazol-5-amine]
Human S9 metabolic stability [1]: 83 % remaining | solubility kinetic at 24 h [2]: 3.05 µM (≈ 1.25 µg/mL) | pIC50 [3]: 5.46 | Rat S9 metabolic stability [4]: 76 % remaining | EC50 ([5]; Onchocerca gutturosa): 0.19 µM

CC(C)Oc1ccc(-c2nsc(Nc3ncccc3N(C)C)n2)nc1 [Compound 31, N^2-(3-(5-Isopropoxypyridin-2-yl)-1,2,4-thiadiazol-5-yl)-N3,N3-dimethylpyridine-2,3-diamine]
Human S9 metabolic stability [1]: 86 % remaining | solubility kinetic at 24 h [2]: 22.5 µM (≈ 8.02 µg/mL) | pIC50 ([3]; supplement): 5.10 | Rat S9 metabolic stability [4]: 79 % remaining | EC50 ([5]; Onchocerca gutturosa): 0.24 µM

CC(=O)N(C)c1cccnc1Nc1nc(-c2ccc(OC(C)C)cn2)ns1 [Compound 47, N-(2-((3-(5-Isopropoxypyridin-2-yl)-1,2,4-thiadiazol-5-yl)amino)pyridin-3-yl)-N-methylacetamide]
solubility kinetic at 24 h [2]: 109 µM (≈ 41.9 µg/mL) | EC50 ([5]; Onchocerca gutturosa): 1.9 µM

CC(C)Oc1ccc(-c2nsc(Nc3ncccc3N(C)C(=O)C3CC3)n2)nc1 [Compound 50, N-(2-((3-(5-Isopropoxypyridin-2-yl)-1,2,4-thiadiazol-5-yl)amino)pyridin-3-yl)-N-methylcyclopropanecarboxamide]
solubility kinetic at 24 h [2]: 2.71 µM (≈ 1.11 µg/mL) | EC50 ([5]; Onchocerca gutturosa): 2.3 µM

CC(C)c1ccnc(-c2nsc(Nc3ncccc3C(F)(F)F)n2)c1 [Compound 27]
Human S9 metabolic stability [1]: 45 % remaining | solubility kinetic at 24 h [2]: 1.6 µM (≈ 0.585 µg/mL) | Rat S9 metabolic stability [4]: 27 % remaining | EC50 ([5]; Onchocerca gutturosa): 0.07 µM | EC50 [5]: 0.069 µM

CNc1cccnc1Nc1nc(-c2ccc(OC(C)C)cn2)ns1 [Compound 30]
Human S9 metabolic stability [1]: 86 % remaining | solubility kinetic at 24 h [2]: 1.9 µM (≈ 0.651 µg/mL) | pIC50 ([3]; supplement): 4.80 | Rat S9 metabolic stability [4]: 73 % remaining | EC50 ([5]; Onchocerca gutturosa): 0.59 µM

CN(C)c1cccnc1Nc1nc(-c2ccc(OC3CC3)cn2)ns1 [Compound 32]
Human S9 metabolic stability [1]: 100 % remaining | solubility kinetic at 24 h [2]: 8.92 µM (≈ 3.16 µg/mL) | Rat S9 metabolic stability [4]: 91 % remaining | EC50 ([5]; Onchocerca gutturosa): 0.56 µM

CC(C)c1ccnc(-c2nsc(Nc3cc(C(F)(F)F)ccn3)n2)c1 [Compound 35, 3-(4-Isopropylpyridin-2-yl)-N-(4-(trifluoromethyl)pyridin-2-yl)-1,2,4-thiadiazol-5-amine]
Human S9 metabolic stability [1]: 65 % remaining | solubility kinetic at 24 h [2]: < 1 µM | Rat S9 metabolic stability [4]: 45 % remaining | EC50 ([5]; Onchocerca gutturosa): 0.15 µM

CC(C)Oc1ccc(-c2nsc(Nc3ncccc3C(C)C)n2)nc1 [Compound 25, 3-(5-Isopropoxy-2-pyridyl)-N-(3-isopropyl-2-pyridyl)-1,2,4-thiadiazol-5-amine]
Human S9 metabolic stability [1]: 99 % remaining | solubility kinetic at 24 h [2]: 2.58 µM (≈ 0.917 µg/mL) | Rat S9 metabolic stability [4]: 82 % remaining | EC50 ([5]; Onchocerca gutturosa): 0.54 µM

Cc1cccnc1Nc1nc(-c2ccc(OC(C)C)cn2)ns1 [Compound 10, 3-(5-Isopropoxypyridin-2-yl)-N-(3-methylpyridin-2-yl)-1,2,4-thiadiazol-5-amine]
Human S9 metabolic stability [1]: 100 % remaining | solubility kinetic at 24 h [2]: 3.2 µM (≈ 1.05 µg/mL) | pIC50 ([3]; supplement): < 4.52 | Rat S9 metabolic stability [4]: 100 % remaining | EC50 ([5]; Onchocerca gutturosa): 0.01 µM | EC50 [5]: 0.013 µM

Cc1ccnc(-c2nsc(Nc3ncccc3C(F)(F)F)n2)c1 [Compound 26, 3-(4-Methylpyridin-2-yl)-N-(3-(trifluoromethyl)pyridin-2-yl)-1,2,4-thiadiazol-5-amine]
Human S9 metabolic stability [1]: 56 % remaining | solubility kinetic at 24 h [2]: 0.9 µM (≈ 0.304 µg/mL) | pIC50 ([3]; supplement): < 4.52 | Rat S9 metabolic stability [4]: 61 % remaining | EC50 ([5]; Onchocerca gutturosa): 0.07 µM | EC50 [5]: 0.069 µM

Cc1cccnc1Nc1nc(-c2ccc(OC3CC3)cn2)ns1 [Compound 11, 3-(5-Cyclopropoxypyridin-2-yl)-N-(3-methylpyridin-2-yl)-1,2,4-thiadiazol-5-amine]
Human S9 metabolic stability [1]: 76 % remaining | solubility kinetic at 24 h [2]: 1.84 µM (≈ 0.599 µg/mL) | pIC50 ([3]; supplement): < 4.52 | Rat S9 metabolic stability [4]: 61 % remaining | EC50 ([5]; Onchocerca gutturosa): 0.02 µM
